The results in this text go back to ChEMBL document CHEMBL1201862, “PubChem BioAssay data set” (2004).

Test systems include 786-0; PC-3; UACC-257; SN12C; T47D; OVCAR-8; OVCAR-5; MDA-MB-435; IGROV-1; MDA-MB-231; SNB-19; HCT-15; RXF 393; BT-549; MDA-N; LXFL 529; SNB-78; DMS-273; M19-MEL.
Assay in all cases: NCI tumour cell line growth inhibition, 48 h

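Step 1: Grow cells in 96-well plates. Step 2: Expose to compound for 48 hours at 5 concentrations. Step 3: Interpolate endpoints linearly; if unreached, use highest concentration. Abbreviation: GI50, concentration required for 50% inhibition of growth.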 The source made the active and inactive calls. Rule as the data show it: active = GI50 up to about 1.1 µM and inactive = higher.

For `CCCc1cc(COC)c(C#N)c(O)n1`, the GI50 in the assay with 786-0, in the assay on PC-3, in the assay on UACC-257, in the assay on SN12C, in the assay on T47D and with OVCAR-8 was > 100 µM (inactive) throughout. The GI50 is > 100 µM (inactive) in the assay with OVCAR-5; > 100 µM (inactive) in the assay on MDA-MB-435; > 100 µM (inactive) in the assay on IGROV-1; > 100 µM (inactive) in the assay with MDA-MB-231; > 100 µM (inactive) in the assay on SNB-19; more than 100 µM in the assay with HCT-15. Moreover, the GI50 in the assay on RXF 393, in the assay with BT-549 and with MDA-N was > 100 µM (inactive) in each case.

With `Oc1ccc(-c2ccccc2)nn1`, the GI50 in the assay on 786-0, in the assay with PC-3, in the assay on UACC-257, with SN12C, with T47D and in the assay with OVCAR-8 was > 100 µM (inactive) each time. Also, the GI50 is > 100 µM (inactive) with OVCAR-5; > 100 µM (inactive) with MDA-MB-435; > 100 µM (inactive) with IGROV-1; > 100 µM (inactive) with MDA-MB-231; > 100 µM (inactive) in the assay on SNB-19; more than 100 µM in the assay on HCT-15. For the same molecule, the GI50 in the assay on RXF 393, in the assay with BT-549 and with MDA-N was > 100 µM (inactive) each time.

With `CC(C)(C)c1c2c(c(C(C)(C)C)c3c1OCN(Cc1ccccc1)C3)OCN(Cc1ccccc1)C2`, the GI50 with 786-0 was 12.9 µM (inactive); in the assay on PC-3, 16.6 µM (inactive); with UACC-257 it was 12.8 µM (inactive); in the assay with SN12C, 15.4 µM (inactive); in the assay on T47D it was 31.7 µM (inactive); in the assay with OVCAR-8 it was 26.2 µM (inactive). The GI50 with OVCAR-5 is 13.4 µM (inactive); with MDA-MB-435 it was 28.5 µM (inactive); in the assay with IGROV-1, 21 µM (inactive); in the assay on MDA-MB-231 it was 15.5 µM (inactive); in the assay on SNB-19, 11 µM (inactive); with HCT-15, 16.5 µM. Also, the GI50 was 14.7 µM (inactive) in the assay on RXF 393, 16.9 µM (inactive) in the assay with BT-549 and 11.7 µM (inactive) with MDA-N.

For the molecule `CCCCCCCCCCCCCCCCNc1cccc2ccccc12`, the GI50 in the assay with 786-0, in the assay with UACC-257, with SN12C, in the assay on LXFL 529, in the assay on OVCAR-8 and in the assay on IGROV-1 was > 100 µM (inactive) throughout. In addition, the GI50 was > 100 µM (inactive) in the assay with SNB-19; > 100 µM (inactive) in the assay with SNB-78; more than 100 µM in the assay with HCT-15; > 100 µM (inactive) with RXF 393; > 100 µM (inactive) in the assay on DMS-273; > 100 µM (inactive) in the assay on M19-MEL.

`CC(C)NC(=O)OCCN=C1c2ccccc2C(Br)C(Br)c2ccccc21` (configuration not stated): the GI50 was 4.14 µM (inactive) with 786-0; 11.6 µM (inactive) in the assay with PC-3; 7.35 µM (inactive) in the assay on UACC-257; 12.6 µM (inactive) in the assay on SN12C; 3.25 µM (inactive) with T47D; 8 µM (inactive) with OVCAR-8. In addition, the GI50 with OVCAR-5 was 12 µM (inactive); with MDA-MB-435, 7.96 µM (inactive); with IGROV-1 it was 2.66 µM (inactive); with MDA-MB-231, 11.5 µM (inactive); in the assay with SNB-19 it was 16.1 µM (inactive); with HCT-15, 9.75 µM. In addition, the GI50 was 2.87 µM (inactive) with RXF 393, 10.4 µM (inactive) in the assay with BT-549 and 5.85 µM (inactive) in the assay on MDA-N.

As for `NC(=O)N=C(NCc1ccccc1)NCc1ccccc1`, the GI50 with 786-0, in the assay on UACC-257, in the assay with SN12C, in the assay on LXFL 529, in the assay on OVCAR-8 and in the assay on IGROV-1 was > 100 µM (inactive) each time. The GI50 was > 100 µM (inactive) in the assay on SNB-19, > 100 µM (inactive) with SNB-78, more than 100 µM in the assay with HCT-15 and > 100 µM (inactive) in the assay on DMS-273.

For the molecule `CC(=O)N/C(=C\c1ccc(/C=C(\NC(C)=O)c2nc3cc(Cl)ccc3[nH]2)cc1)c1nc2ccccc2[nH]1`, the GI50 with 786-0, in the assay on SN12C, in the assay with LXFL 529, in the assay with OVCAR-8, in the assay on OVCAR-5 and in the assay on IGROV-1 was > 100 µM (inactive) each time. For the same molecule, the GI50 is > 100 µM (inactive) in the assay on SNB-19; > 100 µM (inactive) in the assay on SNB-78; more than 100 µM with HCT-15; > 100 µM (inactive) with DMS-273; > 100 µM (inactive) with M19-MEL.

For `O=C(/C=N/O)Nc1ccc(Cl)c(I)c1`, the GI50 with 786-0 was 29.3 µM (inactive); in the assay with UACC-257, 28.6 µM (inactive); in the assay with SN12C, 22.5 µM (inactive); in the assay with LXFL 529, 12.9 µM (inactive); in the assay on OVCAR-8 it was 28.9 µM (inactive); with OVCAR-5 it was 21.6 µM (inactive). For the same molecule, the GI50 was 8.61 µM (inactive) in the assay with IGROV-1; 23.9 µM (inactive) with SNB-19; 14.4 µM in the assay with HCT-15; 16.8 µM (inactive) with RXF 393; 18.4 µM (inactive) with DMS-273; 22.4 µM (inactive) in the assay on M19-MEL.

As for `OC1=CN=C(C2CC2)Oc2ccccc21`, the GI50 in the assay with 786-0, in the assay on UACC-257, with SN12C, in the assay on LXFL 529, with OVCAR-8 and in the assay with IGROV-1 was > 100 µM (inactive) throughout. For the same molecule, the GI50 with SNB-19 is > 100 µM (inactive); in the assay on SNB-78 it was > 100 µM (inactive); with HCT-15, more than 100 µM; in the assay on RXF 393, > 100 µM (inactive); in the assay on DMS-273, > 100 µM (inactive); with M19-MEL, > 100 µM (inactive).

Regarding `COc1ccc(CCNC2=CC(=O)c3ncccc3C2=O)cc1OC`, the GI50 is 3.31 µM (inactive) with 786-0; 2.54 µM (inactive) in the assay with PC-3; 1.19 µM (inactive) with UACC-257; 0.973 µM (active) in the assay on SN12C; 5.09 µM (inactive) with T47D; 2.54 µM (inactive) in the assay with OVCAR-8. Also, the GI50 was 2.7 µM (inactive) with OVCAR-5; 0.471 µM (active) with MDA-MB-435; 1.55 µM (inactive) in the assay on IGROV-1; 0.789 µM (active) with MDA-MB-231; 1.86 µM (inactive) with SNB-19; 0.918 µM in the assay with HCT-15. The GI50 in the assay on RXF 393 is 3.9 µM (inactive); with BT-549, 1.3 µM (inactive); in the assay with MDA-N, 1.18 µM (inactive).

Take `CN1C(=O)c2ccc3ccccc3c2C1=O`: the GI50 in the assay with 786-0 was > 100 µM (inactive); in the assay on PC-3, > 100 µM (inactive); with UACC-257, > 100 µM (inactive); in the assay with SN12C, > 100 µM (inactive); in the assay on T47D, 63.5 µM (inactive); with OVCAR-8, > 100 µM (inactive). Besides, the GI50 with OVCAR-5 is > 100 µM (inactive); with MDA-MB-435, > 100 µM (inactive); in the assay with IGROV-1, > 100 µM (inactive); in the assay with MDA-MB-231, > 100 µM (inactive); in the assay on SNB-19, > 100 µM (inactive); in the assay on HCT-15, more than 100 µM. For the same molecule, the GI50 in the assay with RXF 393 was 30.8 µM (inactive); with BT-549, > 100 µM (inactive); in the assay with MDA-N, > 100 µM (inactive).

Take `CCOC(=O)c1cccc(/N=N/c2ncc(/C=C/C(=O)OC)[nH]2)c1`: the GI50 in the assay on 786-0 is 14.6 µM (inactive); in the assay on PC-3, 24.3 µM (inactive); in the assay with UACC-257, 16.2 µM (inactive); in the assay on SN12C, 7.03 µM (inactive); in the assay with T47D, 29.3 µM (inactive); in the assay with OVCAR-8, 17.3 µM (inactive). Moreover, the GI50 is 55 µM (inactive) with OVCAR-5; 28 µM (inactive) in the assay on MDA-MB-435; 20.6 µM (inactive) in the assay on IGROV-1; 36.7 µM (inactive) in the assay on MDA-MB-231; 34.4 µM (inactive) in the assay with SNB-19; 9.59 µM with HCT-15. Also, the results for the GI50 with RXF 393, in the assay with BT-549 and in the assay on MDA-N were 29.9 µM (inactive), 34.8 µM (inactive) and 15.7 µM (inactive), respectively.

In the case of `COC(=O)C(=O)CC(=O)c1cccc(OC)c1`, the GI50 in the assay on 786-0, in the assay on PC-3, in the assay on UACC-257, with SN12C, with T47D and in the assay on OVCAR-8 was > 100 µM (inactive) throughout. Also, the GI50 in the assay on OVCAR-5 is > 100 µM (inactive); in the assay with MDA-MB-435 it was > 100 µM (inactive); with IGROV-1 it was < 0.01 µM (active); with MDA-MB-231 it was > 100 µM (inactive); with SNB-19, > 100 µM (inactive); in the assay on HCT-15, more than 100 µM. The GI50 with RXF 393 was > 100 µM (inactive); in the assay with BT-549, > 100 µM (inactive); in the assay with MDA-N, 5.66 µM (inactive).

On to `COc1ccc2c(c1)/C(=C(\C(Cl)=C(Cl)Cl)[N+](=O)[O-])N2`, for which the GI50 is 69.8 µM (inactive) in the assay with 786-0; 72.1 µM (inactive) in the assay with PC-3; > 100 µM (inactive) with UACC-257; > 100 µM (inactive) in the assay with SN12C; 67.3 µM (inactive) in the assay on T47D; 92.5 µM (inactive) in the assay with OVCAR-8. The GI50 is > 100 µM (inactive) with OVCAR-5; 51.2 µM (inactive) with MDA-MB-435; > 100 µM (inactive) with IGROV-1; > 100 µM (inactive) in the assay on MDA-MB-231; > 100 µM (inactive) in the assay on SNB-19; more than 100 µM in the assay with HCT-15. The GI50 in the assay with RXF 393 is 39.5 µM (inactive); in the assay with BT-549, 49.7 µM (inactive); with MDA-N, 83.2 µM (inactive).

For `C[C@@H]1C[C@@H]2OC(=O)[C@]3(C)[C@H]2[C@@H](OC3(C)O)[C@]2(C)C(=O)C=C[C@@H]12` (some centres not stated) [TENULIN], the GI50 in the assay with 786-0 is 31.1 µM (inactive); in the assay on PC-3 it was 87.9 µM (inactive); in the assay on UACC-257, 18 µM (inactive); with SN12C, 18.3 µM (inactive); with T47D it was 19 µM (inactive); with OVCAR-8, 32.4 µM (inactive). Also, the GI50 is 19.9 µM (inactive) in the assay on OVCAR-5; 24.2 µM (inactive) in the assay with MDA-MB-435; > 10 µM (inactive) in the assay on IGROV-1; 25 µM (inactive) with MDA-MB-231; 41.4 µM (inactive) in the assay on SNB-19; 10.1 µM in the assay with HCT-15. Also, the results for the GI50 with RXF 393, in the assay on BT-549 and in the assay on MDA-N were 18.7 µM (inactive), 10.1 µM (inactive) and 17.5 µM (inactive), respectively.
